What all share (format): binding
One assay addresses T1, OmcA (Shewanella oneidensis, UniProt Q8EG33).
T1 construct: soluble form, isolated as in earlier work
T1 sequence (Q8EG33 28-735): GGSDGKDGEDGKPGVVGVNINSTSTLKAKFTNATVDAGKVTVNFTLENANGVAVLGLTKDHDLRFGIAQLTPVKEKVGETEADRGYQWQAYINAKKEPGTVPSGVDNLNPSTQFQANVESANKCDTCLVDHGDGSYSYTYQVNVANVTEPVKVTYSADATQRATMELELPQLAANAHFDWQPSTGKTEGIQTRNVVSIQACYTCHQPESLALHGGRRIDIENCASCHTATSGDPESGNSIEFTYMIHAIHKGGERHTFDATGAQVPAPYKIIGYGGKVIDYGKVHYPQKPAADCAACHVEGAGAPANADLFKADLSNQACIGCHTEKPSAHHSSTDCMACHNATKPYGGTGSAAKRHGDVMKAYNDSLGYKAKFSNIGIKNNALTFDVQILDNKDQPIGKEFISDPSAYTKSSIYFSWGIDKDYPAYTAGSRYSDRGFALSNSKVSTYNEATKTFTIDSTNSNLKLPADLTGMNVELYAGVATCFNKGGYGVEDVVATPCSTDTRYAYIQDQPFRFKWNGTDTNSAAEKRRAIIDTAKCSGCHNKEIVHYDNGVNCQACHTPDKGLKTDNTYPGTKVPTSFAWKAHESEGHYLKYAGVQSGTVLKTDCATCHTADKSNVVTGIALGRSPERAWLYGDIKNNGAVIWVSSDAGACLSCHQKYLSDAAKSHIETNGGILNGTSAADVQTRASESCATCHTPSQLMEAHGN
In words: PD10 gel-filtration co-elution, flavin fluorescence and absorbance. Particulars: anaerobic, 1 mM reduced glutathione (disulfide reduced), 10 uM FMN, 20 mM HEPES pH 7.6, room temperature.

The target of another assay is T2, MtrF (Shewanella oneidensis, UniProt Q8EG32).
T2 construct: detergent-solubilised form, isolated as in earlier work
T2 sequence (Q8EG32 24-639): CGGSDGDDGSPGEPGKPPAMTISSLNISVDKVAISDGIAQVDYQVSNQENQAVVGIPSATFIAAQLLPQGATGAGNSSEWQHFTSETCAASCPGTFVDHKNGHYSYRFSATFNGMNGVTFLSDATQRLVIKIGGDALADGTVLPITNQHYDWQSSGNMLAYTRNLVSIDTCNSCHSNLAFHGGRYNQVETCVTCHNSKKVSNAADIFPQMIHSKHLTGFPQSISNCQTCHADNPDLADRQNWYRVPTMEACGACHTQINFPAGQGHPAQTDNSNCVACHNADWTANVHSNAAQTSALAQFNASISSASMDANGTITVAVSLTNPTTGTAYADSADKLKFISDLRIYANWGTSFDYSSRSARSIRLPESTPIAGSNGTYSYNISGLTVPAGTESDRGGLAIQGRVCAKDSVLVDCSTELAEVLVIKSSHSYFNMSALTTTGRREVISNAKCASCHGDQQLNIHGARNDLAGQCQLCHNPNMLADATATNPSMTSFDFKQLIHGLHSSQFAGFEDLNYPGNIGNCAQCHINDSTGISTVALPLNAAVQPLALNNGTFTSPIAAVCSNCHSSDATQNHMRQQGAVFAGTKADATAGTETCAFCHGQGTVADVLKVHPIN
Briefly: PD10 gel-filtration co-elution, flavin fluorescence ([…] nm). The note with it: anaerobic, 1 mM reduced glutathione (disulfide reduced), 10 uM FMN, 20 mM HEPES pH 7.6, room temperature.

For assay [1], the target named is T3, MtrC (Shewanella oneidensis, UniProt Q8EG34).
T3 construct: soluble; pLS146 in S. oneidensis LS329; model residues 45-670
T3 sequence (Q8EG34 26-671): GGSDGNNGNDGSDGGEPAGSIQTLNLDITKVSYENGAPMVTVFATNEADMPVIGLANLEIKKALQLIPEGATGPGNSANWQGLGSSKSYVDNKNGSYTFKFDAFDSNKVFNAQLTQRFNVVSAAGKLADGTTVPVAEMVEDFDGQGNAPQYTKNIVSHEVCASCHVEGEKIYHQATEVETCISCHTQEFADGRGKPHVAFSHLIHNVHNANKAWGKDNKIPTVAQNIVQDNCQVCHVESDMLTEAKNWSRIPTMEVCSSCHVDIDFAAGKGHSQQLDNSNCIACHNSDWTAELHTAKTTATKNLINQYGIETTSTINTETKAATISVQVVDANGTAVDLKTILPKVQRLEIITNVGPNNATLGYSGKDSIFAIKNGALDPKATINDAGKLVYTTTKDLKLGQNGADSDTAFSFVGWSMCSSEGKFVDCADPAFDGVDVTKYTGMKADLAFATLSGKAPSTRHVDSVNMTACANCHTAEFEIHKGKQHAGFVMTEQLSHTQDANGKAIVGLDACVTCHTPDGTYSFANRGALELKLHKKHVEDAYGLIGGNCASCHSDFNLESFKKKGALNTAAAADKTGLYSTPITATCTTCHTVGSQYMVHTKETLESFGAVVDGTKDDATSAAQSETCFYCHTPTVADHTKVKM
Briefly: PD10 gel-filtration co-elution, flavin fluorescence and absorbance; fluorescence quenching. Particulars: anaerobic, 1 mM reduced glutathione (disulfide reduced), 1 uM MtrC, 10 uM FMN, 20 mM HEPES pH 7.6, room temperature.

For the next assay, the target named is T4, UndA (Shewanella sp. HRCR_06, UniProt F8UWD6).
T4 construct: soluble form, isolated as in earlier work
T4 sequence (F8UWD6 27-843): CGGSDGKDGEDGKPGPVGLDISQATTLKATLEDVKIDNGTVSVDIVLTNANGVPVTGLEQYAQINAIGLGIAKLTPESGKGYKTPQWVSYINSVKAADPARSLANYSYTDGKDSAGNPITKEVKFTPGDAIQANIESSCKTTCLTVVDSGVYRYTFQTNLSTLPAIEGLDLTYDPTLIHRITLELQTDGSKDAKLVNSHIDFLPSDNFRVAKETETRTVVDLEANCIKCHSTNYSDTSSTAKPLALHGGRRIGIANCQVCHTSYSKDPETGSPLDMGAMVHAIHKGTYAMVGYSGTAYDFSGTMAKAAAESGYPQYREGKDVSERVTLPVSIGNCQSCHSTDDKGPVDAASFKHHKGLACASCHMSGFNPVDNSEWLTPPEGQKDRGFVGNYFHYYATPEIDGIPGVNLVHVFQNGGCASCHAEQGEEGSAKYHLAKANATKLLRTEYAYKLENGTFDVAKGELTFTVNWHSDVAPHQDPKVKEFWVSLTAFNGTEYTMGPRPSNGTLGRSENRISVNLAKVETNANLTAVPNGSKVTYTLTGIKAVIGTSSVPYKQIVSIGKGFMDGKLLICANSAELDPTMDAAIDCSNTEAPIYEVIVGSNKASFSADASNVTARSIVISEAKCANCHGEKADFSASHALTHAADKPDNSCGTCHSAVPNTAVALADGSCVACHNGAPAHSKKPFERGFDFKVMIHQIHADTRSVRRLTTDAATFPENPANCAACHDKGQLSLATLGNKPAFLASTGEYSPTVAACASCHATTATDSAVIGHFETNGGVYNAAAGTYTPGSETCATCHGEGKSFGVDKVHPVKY
Briefly: PD10 gel-filtration co-elution, flavin fluorescence ([…] nm). Particulars: anaerobic, 1 mM reduced glutathione (disulfide reduced), 10 uM FMN, 20 mM HEPES pH 7.6, room temperature.

The target in assay [2] is T3, MtrC. Briefly: PD10 gel-filtration co-elution, spectroscopy. The note with it: anaerobic, reduced glutathione (disulfide reduced), 20 mM HEPES pH 7.6, room temperature.

The structures appear in SMILES notation.

The source of these data is article PMC4486940, “Redox Linked Flavin Sites in Extracellular Decaheme Proteins Involved in Microbe-Mineral Electron Transfer” (Scientific Reports, 2015).

For the compound `Cc1cc2nc3c(=O)[nH]c(=O)nc-3n(C[C@H](O)[C@H](O)[C@H](O)COP(=O)(O)O)c2cc1C` [FMN], the “PD10 gel-filtration co-elution, flavin fluorescence and absorbance” value at OmcA is “Co-elution of FMN and OmcA was observed in the presence, but not the absence, of glutathione”. In addition, the “PD10 gel-filtration co-elution, flavin fluorescence (525 nm)” value on MtrF and on UndA was “OMMC-FMN interactions were also observed after incubation of MtrF or UndA with FMN” throughout. For the same compound, the “PD10 gel-filtration co-elution, flavin fluorescence and absorbance; fluorescence” value at MtrC [1] is “FMN associated specifically with MtrC in the presence of glutathione”.

For `Cc1cc2nc3c(=O)[nH]c(=O)nc-3n(C[C@H](O)[C@H](O)[C@H](O)CO)c2cc1C` [riboflavin], the “PD10 gel-filtration co-elution, spectroscopy” value on MtrC [2] was “MtrC was also capable of tightly binding a single molecule of riboflavin”.
